Reference: article PMC6099102, “Effect of the Nature of Donor Atoms on the Thermodynamic, Kinetic and Relaxation Properties of Mn(II) Complexes Formed With Some Trisubstituted 12-Membered Macrocyclic Ligands” (Frontiers in Chemistry, 2018)
Where two headings read alike, the source gives them in different places.

Columns and labels:
[1] = Longitudinal water proton relaxivity (r1p) of the Mn(II) complexes; assay type: physicochemical
Protocol: The relaxometric data were collected using a Bruker Minispec MQ20 NMR relaxometer. […] A datapoint plotted on figures represents an average of 5–6 T1 measurements (Figures S3–S9 in Supplementary Material). The data were fitted by using the molar r1p relaxivity value of the MnCl2 ([…] at 0.49 T and 25 °C). The equilibrium constants were calculated using the PSEQUAD program (Zékány and Nagypál, [1985]).
The longitudinal water proton relaxation rates (r1 = 1/T1-1/Tw) were measured at 20 MHz with a Bruker Minispec MQ-20 relaxometer (Bruker Biospin, Germany). Samples were thermostated by using a circulating water bath at 25.0 ± 0.2 °C. The longitudinal relaxation times (T1) were measured by the inversion-recovery method (180° − τ − 90°), averaging 5–6 data points collected for each concentration point obtained from 14 different τ values (τ values ranging between 0 to at least 6 times the expected T1). The relaxivity of the complexes was determined by titrating a nearly 1.0 mM ligand solution with a Mn(II) stock solution at pH = 7.22–7.43 (50 mM HEPES buffer, I = 0.15 M NaCl, 25 °C). Under these conditions, the only Mn(II) ion containing species present in solution is the [Mn(L)], which was supported by the r1 vs. pH profiles. The relaxivity of the complex was determined as the slope of the strait line obtained by plotting 1/T1p values as a function of Mn(II) concentration for samples with [Ligand] > [Mn(II)]. The relaxivity of [Mn(DOTP)]^6− and [Mn(DO3P)]^4− was determined in the pH range of 10.0–11.0 and 8.5–9.3, respectively where mainly the [Mn(DO3P)]^4− and [Mn(DOTP)]^6− complex exists in solution (Figures S4 and S9 in Supplementary Material).
The relaxivity (r1p, mM^−1s^−1) is defined as the longitudinal water proton relaxation rate in a solution containing 1.0 mM concentration of the paramagnetic species. It characterizes the efficiency of a paramagnetic metal chelate to enhance the solvent proton relaxation rate at a given magnetic field (usually 20 MHz) and temperature. The inner-sphere contribution to relaxivity is directly proportional to the number of metal bound water molecules (q), and therefore, relaxivity values may provide some useful information on the hydration state of paramagnetic complexes of similar molecular weights and electronic relaxation times. […] The r1p values of the Mn(II) complexes formed with heptadentate 12-membered macrocyclic ligands were determined at 0.5 T field strength and 25 °C and reported in Table 4 along with some relaxivity data published for the complexes of hexa-, hepta- and octadentate ligands. […] Below these pH ranges the phosphonate moieties undergo protonation, which further increases the relaxivity (2.60–2.90 mM^−1s^−1 values were observed near pH = 7.4, see Supplementary Material). Similar increase in the relaxivity (to 3.20 mM^−1s^−1 at 20 MHz, 37 °C) is observed for the [Mn(DOTA)]^2− complex upon its protonation and formation of the thermodynamically stable diprotonated [Mn(H2DOTA)] complex that exists as a non-hydrated chelate both in solution and in the solid state (Wang and Westmoreland, [2009]). The relaxivity of the diprotonated species at t → 0 time point was determined from the extrapolation of the relaxivity vs. time data collected after acidification of the samples containing the complexes. The X-ray crystallographic structure of [Mn(H2DOTA)] indicates the protonation of two trans carboxylate moieties (e.g., the coordination around the metal ion is similar to that observed in [Mn(trans-DO2A)] as determined by DFT calculations). Thus, the relaxivity of the diprotonated [Mn(H2DOTA)] and [Mn(H2DOTMA)] complexes is expected to be similar to that of [Mn(trans-DO2A)] (when q = 0). The value obtained by us is considerably higher, which highlights the importance of prototropic exchange as a useful tool to improve the relaxivity of the complexes (however, it has to be underlined that the protonation of the complex generally leads to a decrease in kinetic inertness).

[2] = Dissociation kinetics of the Mn(II) complexes (acid catalyzed dissociation, metal or ligand exchange reactions); assay type: physicochemical; conditions: I = 0.15 M NaCl, 25 °C; for t1/2 pH = 7.4 cM = 10^−5 M: half-life of dissociation calculated for pH 7.4, 10 μM exchanging metal ion; for t1/2 0.1 M HCl: half-life of dissociation calculated for 0.1 M H+
Protocol: The dissociation reactions were followed by UV-vis spectrophotometry at 269 nm for the pyclen derivatives or at 300 nm for other complexes in the pH range of 3.6–5.0 for the exchange reactions with Cu(II) and up to pH = 6.0 when Zn(II) was used as a ligand scavenger. The acid catalyzed dissociation reactions were performed in the HCl concentration range of 0.05–1.0 M. The concentration of the complexes in the samples was 0.25 mM, while the concentration of the exchanging metal ion in the metal initiated transchelation reactions was 10–40 times higher to ensure pseudo-first-order conditions. Relaxometry was used to follow the transchelation reactions of [Mn(DOTAM)]^2+, [Mn(DO3AM^H)]^2+, [Mn(DO3A)]^−, [Mn(PCTA)]^− and [Mn(ODO3A)]^− with Cu(II)/Zn(II) ions in the pH range of 3.6–5.5 (Figures S17–S19 in Supplementary Material). The concentration of the complexes in these samples was set to 1.0–2.0 mM to achieve relatively large change during the dissociation reaction. […] The temperature was maintained at 25 °C and the ionic strength of the solutions was kept constant at 0.15 M with NaCl. N,N′-dimethyl- (DMP) and N-methyl-piperazine (NMP) buffers (log K2H = 4.18 and 4.90 at 25 °C and I = 0.15 M NaCl, respectively) were used at 0.05 M concentration to keep the pH constant. The pseudo-first-order rate constants (kobs) were calculated by fitting the absorbance or relaxivity-time data pairs to Equation (1) (1) Xt=(X0-Xe)e^-kobst+Xe where Xt, X0, and Xe are the absorbance or relaxivity at time t, at the start and at equilibrium, respectively. The calculations were performed with the computer program Micromath Scientist, version 2.0 (Salt Lake City, UT, USA) using a standard least-squares procedure.
The kinetic inertness of the Mn(II) complexes is the other important parameter for the complexes considered for use in vivo. The inertness of Mn(II) complexes formed with trisubstituted 12-memberd macrocyclic ligands were characterized either by studying the rates of acid catalyzed dissociation or by studying transmetallation reactions occurring between the complexes and a suitable exchanging metal ion such as Zn(II) or Cu(II). The demetallation reactions of labile complexes were performed at high pH by following the ligand exchange reactions with trans-CDTA and DTPA ligands. The demetallation reactions were studied in the presence of a large Cu(II)/Zn(II)/trans-CDTA/DTPA excess or by using high acid concentration in order to ensure pseudo-first-order conditions (Equation 6). Scheme 1 outlines all the possible dissociation pathways for the Mn(II) complexes. […] The reactions of the released Mn(II) and L ligand with the exchanging L' and M' reactants are assumed to be very rapid.
The rate of dissociation can be expressed by the Equation (6), where kobs is the pseudo-first-order rate constant and [Mn(L)]t is the total concentration of the species containing [Mn(L)] complex. The [Mn(L)]t will differ slightly depending on the experimental conditions (in the presence of a large metal or ligand excess). As [Mn(L)]t = [Mn(L)] + [Mn(HL)] + [Mn(H2L)] + [Mn(L)M] + [Mn(L)(L')] + [Mn(HL)(L')] for reactions performed at high pH (in the pH range of 3.0–5.0 often applied in Cu(II) exchange reactions) will involve fewer protonated species while the acid catalyzed dissociation reactions run in the strongly acidic media (0.1–1.0 M acid concentration range) predominantly contain protonated species ([Mn(L)]t = [Mn(L)]+[Mn(HL)]+[Mn(H2L)]). (6) -d[MnL]t/dt=kobs[MnL]t
By taking into account the various complex species and the possible reaction pathways as well as the protonation and stability constants of the reactive intermediates, the following equation (Equation 7) can be derived to describe the rates of dissociation. […]

[3] = cited from earlier work
[4] = ligand exchange reaction with trans-CDTA^4− or DTPA^5− in the pH range 8-9.5
[5] = 0.5 T field strength, 25 °C and pH = 7.4

Structure (SMILES)	t1/2 pH = 7.4 cM = 10^−5 M [2]	r1p [1, 5] [mM⁻¹ s⁻¹]	t1/2 0.1 M HCl [2] [min]	k1 (proton-assisted dissociation) [2]	further results
O=P([O-])([O-])CN1CCNCCN(CP(=O)([O-])[O-])CCN(CP(=O)([O-])[O-])CC1.[Mn+2] [[Mn(DO3P)]^4−]	3 × 10^−3 h				r1p ([1]; 0.5 T, 25 °C, determined in the pH range of 8.5–9.3): 2.23^[b] mM^−1s^−1; relaxivity ([1]; near pH = 7.4, protonated phosphonate moieties): 2.60 to 2.90 mM⁻¹ s⁻¹; k1 (proton-assisted dissociation) [2, 4]: (2.4 ± 0.2) × 10^5 M^−1s^−1; k2 (proton-assisted dissociation) [2, 4]: (2.2 ± 0.3) × 10^14 M^−2s^−1
O=C([O-])CNC(=O)CN1CCN(CC(=O)NCC(=O)[O-])Cc2cccc(n2)CN(CC(=O)NCC(=O)[O-])CC1.[Mn+2] [[Mn(PC3AM^Gly)]^−]		1.44	5.83		k1 (proton-assisted dissociation) ([2]; proton-assisted dissociation of the [Mn(H3L)] complex): (1.64 ± 0.02) × 10^−2[c] M^−1s^−1; k0 (spontaneous dissociation) ([2]; spontaneous dissociation of the [Mn(H3L)] complex): (3.4 ± 0.2) × 10^−4[c] s^−1
NC(=O)CN1CCN(CC(N)=O)Cc2cccc(n2)CN(CC(N)=O)CC1.[Mn+2] [[Mn(PC3AM^H)]^2+]		1.21	10.8	(1.07 ± 0.01) × 10^−2 M^−1s^−1	
O=C([O-])CN1CCNCCN(CC(=O)[O-])CCN(CC(=O)[O-])CC1.[Mn+2] [[Mn(DO3A)]^−]	1.1 × 10^4 h	1.18 to 1.31		0.45 ± 0.03 M⁻¹ s⁻¹	k2 (proton-assisted dissociation) [2]: (3.2 ± 0.3) × 10^2 M^−2s^−1; r1p ([3]; ref Rolla et al. ([2013])): 1.30 mM⁻¹ s⁻¹
NC(=O)CN1CCNCCN(CC(N)=O)CCN(CC(N)=O)CC1.[Mn+2] [[Mn(DO3AM^H)]^2+]	5.2 × 10^3 h	1.33	0.123	0.94 ± 0.02 M⁻¹ s⁻¹	
NC(=O)CN1CCN(CC(N)=O)CCN(CC(N)=O)CCN(CC(N)=O)CC1.[Mn+2] [[Mn(DOTAM)]^2+]		1.11	7.17	(1.6 ± 0.03) × 10^−2 M^−1s^−1	r1p ([3]; 0.5 T field strength (20 MHz) and 37 °C, ref Wang and Westmoreland ([2009])): 0.96 mM⁻¹ s⁻¹
